Literature values in patent US20210198628A1, “BASAL MEDIA FOR GROWING NK-92 CELLS” (NantKwest, Inc., priority 2018, published 2021).

Conditions: in vivo

## CC[C@H](C(=O)N1CCCC[C@H]1C(=O)O[C@H](CCc1ccc(OC)c(OC)c1)c1cccc(OCC(=O)NCCNC(=O)COc2cccc([C@@H](CCc3ccc(OC)c(OC)c3)OC(=O)[C@@H]3CCCCN3C(=O)[C@@H](CC)c3cc(OC)c(OC)c(OC)c3)c2)c1)c1cc(OC)c(OC)c(OC)c1 [AP1903]
  tolerability in clinical studies: well tolerated
